Key:
metalloproteases = conditions: cited from earlier work
[1] = Release of lidocaine or erythromycin from nanoparticle aggregates in PBS; assay type: physicochemical; conditions: dry blended with pHEMA or HEMA/GMA copolymer powder, aggregate formed in PBS
Source text: Poly-HEMA nanoparticle powder and HEMA/GMA copolymer nanoparticle powders were dry blended with lidocaine or erythromycin powder and upon exposure to PBS, aggregates formed trapping the active between the particles comprising the aggregate.

Row | Structure (SMILES) | Effective concentration (metalloproteases) | Change of release rate as the glycerol methacrylate comonomer is increased [1]
1 | c1cnc2c(c1)ccc1cccnc12 [1,10 phenanthroline] | 0.1 mmol/L | –
2 | CC[C@H]1OC(=O)[C@H](C)[C@@H](O[C@H]2C[C@@](C)(OC)[C@@H](O)[C@H](C)O2)[C@H](C)[C@@H](O[C@@H]2O[C@H](C)C[C@H](N(C)C)[C@H]2O)[C@](C)(O)C[C@@H](C)C(=O)[C@H](C)[C@@H](O)[C@]1(C)O [erythromycin] | – | increases
3 | CCN(CC)CC(=O)Nc1c(C)cccc1C [lidocaine] | – | released at a slower rate

Source: patent publication US7910135B2, “Hydrogel wound dressing and biomaterials formed in situ and their uses” (ULURU Inc., priority 2006, dated 2011)
